The subject of the experiment is 16 breast cancer cell lines. The experiment is described as follows: Drug response of 16 breast cancer cell lines (GRAY dataset, PharmacoGx) compared by presence or absence of CREAM-identified COREs. It is filed as cell-based. To be noted: >1 = higher sensitivity when CORE present. The text has this:
For example, in methods involving assessing drug sensitivity, for each CORE, average drug sensitivity of the samples with that CORE can be divided to the average drug sensitivity of the samples without that CORE. Then the COREs can be sorted based on the obtained fold changes and COREs with top fold changes can be selected.
Therefore, in some embodiments, the top COREs can be determined as being the COREs with a minimum FDR (False Discovery Rate) after significance after multiple hypothesis correction with dindex>1 (where dindex is a measure of hazard). The FDR indicates the significance or effect of association between existence (in the case of binary features using COREs) or values of that feature and the output value (like drug sensitivity in case of biomarker discovery). The FDR is a corrected p-value for multiple hypothesis. Then the COREs that exist in less than N samples may be further filtered. The value of N may be 2 or more and depends on the particular COREs and the prognosis being predicted. For some studies described herein N was chosen to be 5. As an optional step, the remaining COREs may be combined to result in the CORE signatures that may be used for a multivariate model. In some embodiments, Fold Change may be used instead of FDR in which case for each CORE, the average drug sensitivity of the samples with that CORE can be divided by the average drug sensitivity of the samples without that CORE. Then the COREs can be sorted based on the obtained fold changes and the COREs with the top fold changes can be selected.
CREAM was tested for biomarker discovery, for drug response, using 16 breast cancer cell lines (AU565, BT549, HCC1143, HCC1395, HCC1419, HCC1806, HCC1937, HCC3153, HCC38, HCC70, MDAMB157, MDAMB361, MDAMB453, MX1, T47D, ZR751) with available ATAC-seq profiles and response to PD98059 (a non-ATP competitive MEK inhibitor), and Floxuridine (an antimetabolite agent), as part of the data available in PharmacoGx R package (version 2.0.5) developed by Haibe-Kains laboratory. There are currently no known biomarker for response to PD98059 and Floxuridine.
The columns in each Table are: 1) chromosome regions of the COREs; 2) pvalue; 3) Fold change.
Fold change tells you if presence of a CORE results in higher or lower sensitivity. If Fold Change is great than 1, it means that presence of a CORE results in higher sensitivity and Fold Change is less than 1, it means that presence of a CORE results in lower sensitivity.

Molecule `O=c1[nH]c(=O)n([C@H]2C[C@H](O)[C@@H](CO)O2)cc1F` [Floxuridine] displayed a Fold change (Floxuridine sensitivity with vs without CORE chr2-36473442-37039510) of 0.6674; a Fold change (Floxuridine sensitivity with vs without CORE chr3-69004922-69292456) of 0.6617; a Fold change (Floxuridine sensitivity with vs without CORE chr4-99547495-99584170) of 0.5406; a Fold change (Floxuridine sensitivity with vs without CORE chr5-167696005-167914094) of 0.629; a Fold change (Floxuridine sensitivity with vs without CORE chr6-16577121-16782003) of 0.5777; a Fold change (Floxuridine sensitivity with vs without CORE chr15-60619092-60725509) of 0.7009. Besides, the Fold change came to 1.653 (Floxuridine sensitivity with vs without CORE chr16-29801700-30154789), 2.017 (Floxuridine sensitivity with vs without CORE chr16-67184267-67407032) and 0.699 (Floxuridine sensitivity with vs without CORE chr17-21102597-21252333).

As for `COc1cccc(-c2cc(=O)c3ccccc3o2)c1N` [PD98059], the Fold change by setting is: (PD98059 sensitivity with vs without CORE chr2-75602732-75966190) 0.5231; (PD98059 sensitivity with vs without CORE chr6-126063660-126362254) 0.4327; (PD98059 sensitivity with vs without CORE chr7-54328557-56189467) 0.5362; (PD98059 sensitivity with vs without CORE chr9-75681937-75835570) 0.538; (PD98059 sensitivity with vs without CORE chr9-103348375-103365047) 0.4902; (PD98059 sensitivity with vs without CORE chr9-130150616-131799038) 1.906. The Fold change runs as follows: (PD98059 sensitivity with vs without CORE chr9-139257512-140211180) 1.864; (PD98059 sensitivity with vs without CORE chr11-694436-876984) 2.17; (PD98059 sensitivity with vs without CORE chr11-34183346-34607941) 1.859; (PD98059 sensitivity with vs without CORE chr15-40330702-40453457) 2.206; (PD98059 sensitivity with vs without CORE chr16-4965308-5008584) 1.983; (PD98059 sensitivity with vs without CORE chr16-53766187-53861966) 0.4902. Moreover, the Fold change reads like this: (PD98059 sensitivity with vs without CORE chr17-21102597-21252333) 0.5247; (PD98059 sensitivity with vs without CORE chr19-45765981-46636866) 1.904; (PD98059 sensitivity with vs without CORE chr20-9819285-10752699) 0.5253.
